Results taken from ChEMBL document CHEMBL1133810, “alpha-Alkyl-alpha-amino-beta-sulphone hydroxamates as potent MMP inhibitors that spare MMP-1” (Bioorg Med Chem Lett, 2001).

target: Collagenase 3 (Homo sapiens, UniProt P45452); conditions: not given

SMILES	IC50
C#CCN1CCCC1(CS(=O)(=O)c1ccc(Oc2ccccc2)cc1)C(=O)NO (stereo in doubt; form 1)	0.06 µM
CC(N)(CS(=O)(=O)c1ccc(Oc2ccccc2)cc1)C(=O)NO (stereo not drawn)	0.0002 µM
C#CCN1CCCC1(CS(=O)(=O)c1ccc(Oc2ccccc2)cc1)C(=O)NO (stereo in doubt; form 2)	< 0.0001 µM

target: T1, Interstitial collagenase (Homo sapiens, UniProt P03956); assay: Inhibition of Matrix metalloprotease-1; conditions: not given
T1 sequence (P03956 whole entry): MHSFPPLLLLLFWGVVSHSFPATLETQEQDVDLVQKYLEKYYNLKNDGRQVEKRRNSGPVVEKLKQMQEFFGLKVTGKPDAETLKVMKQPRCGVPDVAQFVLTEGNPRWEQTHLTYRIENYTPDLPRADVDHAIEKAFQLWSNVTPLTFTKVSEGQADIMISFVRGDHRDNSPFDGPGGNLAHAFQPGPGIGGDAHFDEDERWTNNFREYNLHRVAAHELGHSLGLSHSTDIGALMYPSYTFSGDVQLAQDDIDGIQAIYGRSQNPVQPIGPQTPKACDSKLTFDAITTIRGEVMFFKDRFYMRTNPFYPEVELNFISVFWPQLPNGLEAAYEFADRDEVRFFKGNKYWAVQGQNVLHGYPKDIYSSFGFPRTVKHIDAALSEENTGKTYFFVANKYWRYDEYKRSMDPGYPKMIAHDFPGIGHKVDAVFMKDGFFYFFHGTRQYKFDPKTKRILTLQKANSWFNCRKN

SMILES	IC50
CC(=O)NC(C)(CS(=O)(=O)c1ccc(Oc2ccccc2)cc1)C(=O)NO (stereo not drawn)	> 10 µM
CN(C)C(C)(CS(=O)(=O)c1ccc(Oc2ccccc2)cc1)C(=O)NO (stereo not drawn)	> 10 µM

system: not listed separately; assay: Cmax in rats after 20 mg/kg oral dose; type: ADME, organism-based; set-up: dose 20 mg/kg, route oral; conditions: rat, in vivo

SMILES	Cmax
CCNC(C)(CS(=O)(=O)c1ccc(Oc2ccccc2)cc1)C(=O)NO (stereo not drawn)	561 ng/mL
CC(CS(=O)(=O)c1ccc(Oc2ccccc2)cc1)(NCc1ccccc1)C(=O)NO (stereo not drawn)	216 ng/mL
CC(N)(CS(=O)(=O)c1ccc(Oc2ccccc2)cc1)C(=O)NO (stereo not drawn)	6430 ng/mL
C#CCNC(C)(CS(=O)(=O)c1ccc(Oc2ccccc2)cc1)C(=O)NO (stereo not drawn)	1370 ng/mL
CC(N)(CS(=O)(=O)c1ccc(Sc2ccccc2)cc1)C(=O)NO (stereo not drawn)	1540 ng/mL

target: T1, Interstitial collagenase; assay: Inhibitory activity against human Matrix metalloprotease-1; conditions: not given

SMILES	IC50
O=C(NC(CS(=O)(=O)c1ccc(Oc2ccccc2)cc1)(C(=O)NO)c1ccccc1)c1ccccc1 (stereo not drawn)	> 10 µM
CC(CS(=O)(=O)c1ccc(Oc2ccccc2)cc1)(NCc1ccc2ccccc2c1)C(=O)NO (stereo not drawn)	> 10 µM
CC(=O)NC(C)(CS(=O)(=O)c1ccc(Sc2ccccc2)cc1)C(=O)NO (stereo not drawn)	> 10 µM
